Assays:
[1] = target: T1, RARβ (Homo sapiens, UniProt P10826); test: ligand binding assay, RARβ; details: Kd line of EC50/(EFFICACY)/Kd, read-out: RAR Kd β
T1 sequence (P10826 1-455): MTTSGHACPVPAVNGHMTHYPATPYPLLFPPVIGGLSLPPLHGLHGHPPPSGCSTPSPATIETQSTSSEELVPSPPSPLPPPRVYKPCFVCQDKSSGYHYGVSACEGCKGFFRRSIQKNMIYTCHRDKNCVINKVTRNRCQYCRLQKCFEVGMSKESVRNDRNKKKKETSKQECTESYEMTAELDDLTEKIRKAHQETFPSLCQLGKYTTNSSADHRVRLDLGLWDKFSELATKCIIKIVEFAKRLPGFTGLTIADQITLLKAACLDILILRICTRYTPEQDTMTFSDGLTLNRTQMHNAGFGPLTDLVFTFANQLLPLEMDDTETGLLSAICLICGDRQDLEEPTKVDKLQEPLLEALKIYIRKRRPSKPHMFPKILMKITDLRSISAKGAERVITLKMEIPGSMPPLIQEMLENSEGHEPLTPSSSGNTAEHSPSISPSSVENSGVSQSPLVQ

[2] = target: T2, RARβ (Homo sapiens, UniProt P10826); test: chimeric receptor transactivation assay, RARβ; format: cell-based; details: EC50 line of EC50/(EFFICACY)/Kd, read-out: RAR EC50 β
T2 sequence (P10826 183-417 limits assumed): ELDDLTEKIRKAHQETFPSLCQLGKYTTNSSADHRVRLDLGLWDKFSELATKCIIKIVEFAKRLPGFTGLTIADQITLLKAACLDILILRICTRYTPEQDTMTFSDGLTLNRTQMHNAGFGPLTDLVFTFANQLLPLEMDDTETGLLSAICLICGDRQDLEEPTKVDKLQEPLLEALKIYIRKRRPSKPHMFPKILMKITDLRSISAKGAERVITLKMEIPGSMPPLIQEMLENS
Description: Assays described below measure the ability of a compound to bind to, and/or activate various retinoid receptor subtypes. When in these assays a compound binds to a given receptor subtype and activates the transcription of a reporter gene through that subtype, then the compound is considered an agonist of that receptor subtype. […] In the below described assays the ability of the compounds to bind to RARα, RARβ, RARγ, RXRα, RXRβ and RXRγ receptors, and the ability or inability of the compounds to activate transcription of a reporter gene through these receptor subtypes can be tested.
As far as specific assays are concerned, a chimeric receptor transactivation assay which tests for agonist-like activity in the RARα, RARβ, AND RARγ, receptor subtypes, and which is based on work published by Feigner P. L. and Holm M. (1989) Focus, 112 is described in detail in U.S. Pat. No. 5,455,265. The specification of U.S. Pat. No. 5,455,265 is hereby expressly incorporated by reference. The numeric results obtained with several preferred compounds of this invention in this assay are shown below in Table 1.

[3] = target: T3, RARα (Homo sapiens, UniProt P10276); test: ligand binding assay, RARα; details: Kd line of EC50/(EFFICACY)/Kd, read-out: RAR Kd α
T3 sequence (P10276 1-462): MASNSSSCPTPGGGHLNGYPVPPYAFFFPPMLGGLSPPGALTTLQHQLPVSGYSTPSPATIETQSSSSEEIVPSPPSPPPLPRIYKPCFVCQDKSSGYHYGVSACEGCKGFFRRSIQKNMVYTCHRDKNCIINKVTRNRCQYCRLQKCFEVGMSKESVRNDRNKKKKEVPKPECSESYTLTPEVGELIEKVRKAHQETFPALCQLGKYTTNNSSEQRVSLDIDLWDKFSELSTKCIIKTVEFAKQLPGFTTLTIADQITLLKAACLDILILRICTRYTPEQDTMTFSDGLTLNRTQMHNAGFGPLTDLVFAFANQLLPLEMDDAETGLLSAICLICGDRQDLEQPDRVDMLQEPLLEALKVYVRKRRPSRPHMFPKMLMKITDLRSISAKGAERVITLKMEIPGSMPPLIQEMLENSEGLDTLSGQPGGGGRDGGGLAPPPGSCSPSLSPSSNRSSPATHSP

Structure (SMILES) | Kd [1] [nM] | EC50 [2] [nM] | Kd [3] [nM]
Cc1cc(C#Cc2ccc(C(=O)O)cc2)ccc1C1(OCc2ccccc2)CC1 [Compound 81, 4-[4-(1-Benzyloxycyclopropyl)-3-methyl-phenylethynyl]-benzoic Acid] | 846 | 490 | 4210
CC(C)OC1(c2ccc(C#Cc3ccc(C(=O)O)cc3)cc2)CC1 [Compound 73, 4-[4-(1-Isopropoxycyclopropyl)-phenylethynyl]-benzoic Acid] | 26 | 22.5 | 486
CC1(C)CCC(=O)c2ccc(C#Cc3ccc(CC(=O)O)cc3)cc21 [Compound 5, 4-[(8,8-Dimethyl-5-oxo-5,6,7,8-tetrahydro-naphthalene-2-yl-ethynyl)-phenyl]-acetic Acid] | 2810 | 11 | 9150
COC1(c2ccc(C#Cc3ccc(C(=O)O)cc3)cc2)CC1 [Compound 69, 4-[4-(1-Methoxycyclopropyl)-phenylethynyl]-benzoic Acid] | 133 | 12 | 469
CCCN(CCC)C1(c2ccc(C#Cc3ccc(C(=O)O)cc3)cc2)CC1 [Compound 110, 4-[4-(1-Dipropylamino-cyclopropyl)-phenylethynyl]-benzoic Acid] | 409 | 74 | 2060
CCCNC1(c2ccc(C#Cc3ccc(C(=O)O)cc3)cc2)CC1 [Compound 108, 4-[4-(1-Propylamino-cyclopropyl)-phenylethynyl]-benzoic Acid] | 547 | 283 | 21000
CC1(C)CC2(CC2)Oc2ccc(C#Cc3ccc(C(=O)O)cc3)cc21 [Compound 40, Benzoic Acid, 4-[(3,4-dihydro-4,4-dimethylspiro[2H-1-benzopyran-2,1′-cyclopropane]-6-yl)ethynyl]-] | 1.3 | 1.2 | 69
Cc1cc(C#Cc2ccc(C(=O)O)cc2)ccc1C1(OC(C)C)CC1 [Compound 85, 4-[4-(1-Isopropoxycyclopropyl)-3-methyl-phenylethynyl]-benzoic Acid] | 240 | 3.5 | 1860
O=C(O)c1ccc(C#Cc2ccc(C3(NCc4ccccc4)CC3)cc2)cc1 [Compound 112, 4-[4-(1-Benzylamino-cyclopropyl)-phenylethynyl]-benzoic Acid] | 704 | 335 | 5850
CC1(C)CC2(CC2)Oc2ccc(C#Cc3ccc(C(=O)O)c(F)c3)cc21 [Compound 44, 2-Fluoro-benzoic Acid, 4-[(3,4-dihydro-4,4-dimethylspiro[2H-1-benzopyran-2,1′-cyclopropane]-6-yl)ethynyl]-] | 1.9 | 1.7 | 37
CCc1cc(C#Cc2ccc(C(=O)O)cc2)ccc1C1(OCc2ccccc2)CC1 [Compound 93, 4-[4-(1-Benzyloxycyclopropyl)-3-ethyl-phenylethynyl]-benzoic Acid] | 554 | 20 | 3450
CN(C1CC1)C1CCC(C)(C)c2cc(C#Cc3ccc(C(=O)O)cc3)ccc21 (centres unmarked) [Compound 3, 4-[(5-Cyclopropyl-methyl-amino)-8,8-dimethyl-5,6,7,8-tetrahydro-naphthalene-2yl-ethynyl]-benzoic Acid] | 0.8 | 4.8 | 145
Cc1cc(C#Cc2ccc(C(=O)O)cc2)ccc1C1(OCC(C)(C)C)CC1 [Compound 89, 4-[4-[1-(2,2-Dimethylpropyloxy)-cyclopropyl]-3-methyl-phenylethynyl]-benzoic Acid] | 980 | 26 | 3410
CN(C1CC1)C1CCC(C)(C)c2cc(C#Cc3ccc(CC(=O)O)cc3)ccc21 (centres unmarked) [Compound 8, 4-[(5-(Cyclopropyl-methyl-amino)-8,8-dimethyl-5,6,7,8-tetrahydro-naphthalene-2-yl-ethynyl)-phenyl]-acetic Acid] | 3780 | 363 | 
